Assay results taken from patent publication US20250353891A1 (MEDIMMUNE LIMITED, priority 2022, published 2025).
Starred links: 1 amine or outer side, 2 acyl side, 3 side chain; linkers in the order of their positions; H or OH if unused. Non-standard residues stand in square brackets, D forms with d. Residues, ends and D or L forms follow the SMILES beside them. Groups on a side chain read outwards from the residue. *: point of attachment. C20 diacid = O=C(O)CCCCCCCCCCCCCCCCCCC(=O)*; C18 diacid = O=C(O)CCCCCCCCCCCCCCCCC(=O)*; γGlu = O=C(O)[C@H](CCC(=O)[*:2])N[*:1]; X3 = O=C(CN(Cc1c[nH]cn1)[*:1])[*:2]; αMeF = C[C@](N)(Cc1ccccc1)C(=O)O; AEEA = NCCOCCOCC(=O)O; Aib = CC(C)(N)C(=O)O

What was measured:
[1] = target: human GLP-1 receptor (hGLP-1R) (Homo sapiens, UniProt P43220); assay: cAMP production (HTRF) in CHO cells expressing hGLP-1R; type: cell-based; design: expressed in transfected cells; conditions: for EC50: Table 7, peptides modified at position 20, cAMP in CHO hGLP-1R cells, geometric mean, read-out: hGLP-1R EC50; for % Relative Potency Ratio: Table 7, % GLP-1R activity relative to GLP-1 / % GlucR activity relative to glucagon
Chain of human GLP-1 receptor (hGLP-1R) (P43220 24-463): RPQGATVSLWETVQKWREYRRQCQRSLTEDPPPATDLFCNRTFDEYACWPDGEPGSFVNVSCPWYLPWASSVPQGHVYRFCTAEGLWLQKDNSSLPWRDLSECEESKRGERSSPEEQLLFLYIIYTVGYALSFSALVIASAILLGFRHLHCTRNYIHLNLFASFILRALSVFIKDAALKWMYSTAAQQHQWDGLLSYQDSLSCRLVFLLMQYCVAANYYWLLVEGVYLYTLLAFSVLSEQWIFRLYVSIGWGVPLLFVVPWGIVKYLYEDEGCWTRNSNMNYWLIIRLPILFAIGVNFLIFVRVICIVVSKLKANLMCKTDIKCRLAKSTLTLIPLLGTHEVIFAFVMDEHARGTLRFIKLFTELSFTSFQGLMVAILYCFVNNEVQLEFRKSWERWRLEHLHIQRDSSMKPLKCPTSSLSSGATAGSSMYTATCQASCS
Procedure, shortened: (§1)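 Cells were resuspended in assay buffer at batch-optimized density, typically 1×10^5 cells/mL for hGLP-1R and 2×10^5 cells/mL for hGCGR. After 30 min incubation at room temperature with compound, cAMP was measured by two-step HTRF. EC50 values came from 4-parameter logistic fits of % Delta F.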

[2] = target: human glucagon receptor (hGCGR) (Homo sapiens, UniProt P47871); assay: cAMP production (HTRF) in CHO cells expressing hGCGR; type: cell-based; design: expressed in transfected cells; conditions: Table 7, peptides modified at position 20; cAMP in CHO hGCGR cells; geometric mean; read-out: hGluc-R EC50
Chain of human glucagon receptor (hGCGR) (P47871 26-477): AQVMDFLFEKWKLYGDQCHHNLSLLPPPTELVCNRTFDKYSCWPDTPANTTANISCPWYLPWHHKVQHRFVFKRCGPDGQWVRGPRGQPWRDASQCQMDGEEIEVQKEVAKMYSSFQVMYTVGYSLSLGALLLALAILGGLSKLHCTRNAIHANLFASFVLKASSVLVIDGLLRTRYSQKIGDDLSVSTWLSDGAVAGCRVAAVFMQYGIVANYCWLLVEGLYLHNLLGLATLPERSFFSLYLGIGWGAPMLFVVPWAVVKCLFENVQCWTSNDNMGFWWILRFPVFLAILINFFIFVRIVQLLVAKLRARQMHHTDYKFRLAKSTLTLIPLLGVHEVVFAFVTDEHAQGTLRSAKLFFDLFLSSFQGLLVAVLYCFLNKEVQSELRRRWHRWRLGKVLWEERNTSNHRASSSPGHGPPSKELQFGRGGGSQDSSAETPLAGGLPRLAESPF
Procedure, shortened: as §1

| EC50 [1] [nM] | % Relative Potency Ratio [1] | EC50 [2] [nM] | Compound |
| --- | --- | --- | --- |
| 0.32 | 3.4 | 0.557 | CC[C@H](C)[C@H](NC(=O)[C@H](CO)NC(=O)[C@H](CCC(=O)O)NC(=O)[C@@H](NC(=O)[C@](C)(Cc1ccccc1)NC(=O)[C@H](CC(=O)O)NC(=O)[C@H](CCCCNC(=O)COCCOCCNC(=O)COCCOCCNC(=O)CC[C@H](NC(=O)CC[C@H](NC(=O)CCCCCCCCCCCCCCCCCCC(=O)O)C(=O)O)C(=O)O)NC(=O)[C@H](C)NC(=O)[C@H](C)NC(=O)[C@H](CCCNC(=N)N)NC(=O)[C@H](CO)NC(=O)[C@H](CC(=O)O)NC(=O)[C@H](CC(C)C)NC(=O)[C@](C)(Cc1ccccc1)NC(=O)[C@H](CCCCN)NC(=O)[C@H](CO)NC(=O)[C@@H](NC(=O)[C@H](CC(=O)O)NC(=O)[C@H](CO)NC(=O)[C@@H](NC(=O)[C@](C)(Cc1ccccc1)NC(=O)[C@H](CO)NC(=O)CNC(=O)[C@H](Cc1c[nH]cn1)NC(=O)C(C)(C)NC(=O)[C@@H](N)Cc1c[nH]cn1)[C@@H](C)O)C(C)C)C(C)C)C(=O)N[C@@H](C)C(=O)N[C@@H](CC(N)=O)C(=O)N[C@H](C(N)=O)[C@@H](C)O [Peptide 246] (H-H[Aib]HGS[αMeF]TSDVSK[αMeF]LDSRAAK([AEEA-AEEA-γGlu-γGlu-C20 diacid])D[αMeF]VESIANT-NH2) |
| 0.558 | 1.9 | 0.545 | CC[C@H](C)[C@H](NC(=O)[C@H](CO)NC(=O)[C@H](CCC(=O)O)NC(=O)[C@@H](NC(=O)[C@](C)(Cc1ccccc1)NC(=O)[C@H](CC(=O)O)NC(=O)[C@H](CCCCNC(=O)COCCOCCNC(=O)COCCOCCNC(=O)CC[C@H](NC(=O)CC[C@H](NC(=O)CCCCCCCCCCCCCCCCCCC(=O)O)C(=O)O)C(=O)O)NC(=O)[C@H](C)NC(=O)C(C)(C)NC(=O)[C@H](CCCNC(=N)N)NC(=O)[C@H](CO)NC(=O)[C@H](CC(=O)O)NC(=O)[C@H](CC(C)C)NC(=O)[C@](C)(Cc1ccccc1)NC(=O)[C@H](CCCCN)NC(=O)[C@H](CO)NC(=O)[C@@H](NC(=O)[C@H](CC(=O)O)NC(=O)[C@H](CO)NC(=O)[C@@H](NC(=O)[C@](C)(Cc1ccccc1)NC(=O)[C@H](CO)NC(=O)CNC(=O)[C@H](Cc1c[nH]cn1)NC(=O)C(C)(C)NC(=O)[C@@H](N)Cc1c[nH]cn1)[C@@H](C)O)C(C)C)C(C)C)C(=O)N[C@@H](C)C(=O)N[C@@H](CC(N)=O)C(=O)N[C@H](C(N)=O)[C@@H](C)O [Peptide 249] (H-H[Aib]HGS[αMeF]TSDVSK[αMeF]LDSR[Aib]AK([AEEA-AEEA-γGlu-γGlu-C20 diacid])D[αMeF]VESIANT-NH2) |
| 0.601 | 5.2 | 1.57 | CC[C@H](C)[C@H](NC(=O)[C@H](CO)NC(=O)[C@H](CCC(=O)O)NC(=O)[C@@H](NC(=O)[C@](C)(Cc1ccccc1)NC(=O)[C@H](CC(=O)O)NC(=O)[C@H](CCCCNC(=O)COCCOCCNC(=O)COCCOCCNC(=O)CC[C@H](NC(=O)CC[C@H](NC(=O)CCCCCCCCCCCCCCCCC(=O)O)C(=O)O)C(=O)O)NC(=O)[C@H](C)NC(=O)C(C)(C)NC(=O)[C@H](CCCNC(=N)N)NC(=O)[C@H](CO)NC(=O)[C@H](CC(=O)O)NC(=O)[C@H](CC(C)C)NC(=O)[C@](C)(Cc1ccccc1)NC(=O)[C@H](CCCCN)NC(=O)[C@H](CO)NC(=O)[C@@H](NC(=O)[C@H](CC(=O)O)NC(=O)[C@H](CO)NC(=O)[C@@H](NC(=O)[C@](C)(Cc1ccccc1)NC(=O)[C@H](CO)NC(=O)CNC(=O)[C@H](Cc1c[nH]cn1)NC(=O)C(C)(C)NC(=O)[C@@H](N)Cc1c[nH]cn1)[C@@H](C)O)C(C)C)C(C)C)C(=O)N[C@@H](C)C(=O)N[C@@H](CC(N)=O)C(=O)N[C@H](C(N)=O)[C@@H](C)O [Peptide 250] (H-H[Aib]HGS[αMeF]TSDVSK[αMeF]LDSR[Aib]AK([AEEA-AEEA-γGlu-γGlu-C18 diacid])D[αMeF]VESIANT-NH2) |
| 0.0798 | 6.2 | 0.248 | CC[C@H](C)[C@H](NC(=O)[C@H](CO)NC(=O)[C@H](CCC(=O)O)NC(=O)[C@@H](NC(=O)[C@H](Cc1ccccc1)NC(=O)[C@H](CC(=O)O)NC(=O)[C@H](CCCCNC(=O)COCCOCCNC(=O)COCCOCCNC(=O)CC[C@H](NC(=O)CCCCCCCCCCCCCCCCC(=O)O)C(=O)O)NC(=O)[C@H](C)NC(=O)C(C)(C)NC(=O)[C@H](CCCNC(=N)N)NC(=O)[C@H](CO)NC(=O)[C@H](CC(=O)O)NC(=O)[C@H](CC(C)C)NC(=O)[C@](C)(Cc1ccccc1)NC(=O)[C@H](CCCCN)NC(=O)[C@H](CO)NC(=O)[C@@H](NC(=O)[C@H](CC(=O)O)NC(=O)[C@H](CO)NC(=O)[C@@H](NC(=O)[C@](C)(Cc1ccccc1)NC(=O)[C@H](CO)NC(=O)CNC(=O)[C@H](Cc1c[nH]cn1)NC(=O)C(C)(C)NC(=O)[C@@H](N)Cc1c[nH]cn1)[C@@H](C)O)C(C)C)C(C)C)C(=O)N[C@@H](C)C(=O)N[C@@H](CC(N)=O)C(=O)N[C@H](C(N)=O)[C@@H](C)O [Peptide 251] (H-H[Aib]HGS[αMeF]TSDVSK[αMeF]LDSR[Aib]AK([AEEA-AEEA-γGlu-C18 diacid])DFVESIANT-NH2; N-terminus assumed) |
| 0.119 | 21.7 | 1.31 | CC[C@H](C)[C@H](NC(=O)[C@H](CO)NC(=O)[C@H](CCC(=O)O)NC(=O)[C@@H](NC(=O)[C@H](Cc1ccccc1)NC(=O)[C@H](CC(=O)O)NC(=O)[C@H](CCCCNC(=O)COCCOCCNC(=O)COCCOCCNC(=O)CC[C@H](NC(=O)CCCCCCCCCCCCCCCCCCC(=O)O)C(=O)O)NC(=O)[C@H](C)NC(=O)C(C)(C)NC(=O)[C@H](CCCNC(=N)N)NC(=O)[C@H](CO)NC(=O)[C@H](CC(=O)O)NC(=O)[C@H](CC(C)C)NC(=O)[C@](C)(Cc1ccccc1)NC(=O)[C@H](CCCCN)NC(=O)[C@H](CO)NC(=O)[C@@H](NC(=O)[C@H](CC(=O)O)NC(=O)[C@H](CO)NC(=O)[C@@H](NC(=O)[C@](C)(Cc1ccccc1)NC(=O)[C@H](CO)NC(=O)CNC(=O)[C@H](Cc1c[nH]cn1)NC(=O)C(C)(C)NC(=O)[C@@H](N)Cc1c[nH]cn1)[C@@H](C)O)C(C)C)C(C)C)C(=O)N[C@@H](C)C(=O)N[C@@H](CC(N)=O)C(=O)N[C@H](C(N)=O)[C@@H](C)O [Peptide 252] (H-H[Aib]HGS[αMeF]TSDVSK[αMeF]LDSR[Aib]AK([AEEA-AEEA-γGlu-C20 diacid])DFVESIANT-NH2) |

Further lines, the compound ahead of its results:

| Compound | EC50 [1] [nM] | % Relative Potency Ratio [1] | EC50 [2] [nM] |
| --- | --- | --- | --- |
| CC[C@H](C)[C@H](NC(=O)[C@H](Cc1c[nH]c2ccccc12)NC(=O)[C@H](CCC(N)=O)NC(=O)[C@@H](NC(=O)[C@](C)(Cc1ccccc1)NC(=O)[C@H](CC(=O)O)NC(=O)[C@H](CCCCNC(=O)COCCOCCNC(=O)COCCOCCNC(=O)CC[C@H](NC(=O)CC[C@H](NC(=O)CCCCCCCCCCCCCCCCCCC(=O)O)C(=O)O)C(=O)O)NC(=O)[C@H](C)NC(=O)[C@H](C)NC(=O)[C@H](CCCNC(=N)N)NC(=O)[C@H](CO)NC(=O)[C@H](CC(=O)O)NC(=O)[C@H](CC(C)C)NC(=O)[C@](C)(Cc1ccccc1)NC(=O)[C@H](CCCCN)NC(=O)[C@H](CO)NC(=O)[C@@H](NC(=O)[C@H](CC(=O)O)NC(=O)[C@H](CO)NC(=O)[C@@H](NC(=O)[C@](C)(Cc1ccccc1)NC(=O)[C@H](CO)NC(=O)CNC(=O)[C@H](Cc1c[nH]cn1)NC(=O)[C@H](CO)NC(=O)CNCc1c[nH]cn1)[C@@H](C)O)C(C)C)C(C)C)C(=O)N[C@@H](C)C(=O)N[C@@H](CC(N)=O)C(=O)N[C@H](C(N)=O)[C@@H](C)O [Peptide 248] (H-[X3]SHGS[αMeF]TSDVSK[αMeF]LDSRAAK([AEEA-AEEA-γGlu-γGlu-C20 diacid])D[αMeF]VQWIANT-NH2; N-terminus assumed) | 1.09 | 24.6 | 13.6 |
| CC[C@H](C)[C@H](NC(=O)[C@H](CO)NC(=O)[C@H](CCC(=O)O)NC(=O)[C@@H](NC(=O)[C@H](Cc1ccccc1)NC(=O)[C@H](CC(=O)O)NC(=O)[C@H](CCCCNC(=O)COCCOCCNC(=O)CC[C@H](NC(=O)CCCCCCCCCCCCCCCCC(=O)O)C(=O)O)NC(=O)[C@H](C)NC(=O)C(C)(C)NC(=O)[C@H](CCCNC(=N)N)NC(=O)[C@H](CO)NC(=O)[C@H](CC(=O)O)NC(=O)[C@H](CC(C)C)NC(=O)[C@](C)(Cc1ccccc1)NC(=O)[C@H](CCCCN)NC(=O)[C@H](CO)NC(=O)[C@@H](NC(=O)[C@H](CC(=O)O)NC(=O)[C@H](CO)NC(=O)[C@@H](NC(=O)[C@](C)(Cc1ccccc1)NC(=O)[C@H](CO)NC(=O)CNC(=O)[C@H](Cc1c[nH]cn1)NC(=O)C(C)(C)NC(=O)[C@@H](N)Cc1c[nH]cn1)[C@@H](C)O)C(C)C)C(C)C)C(=O)N[C@@H](C)C(=O)N[C@@H](CC(N)=O)C(=O)N[C@H](C(N)=O)[C@@H](C)O [Peptide 253] (H-H[Aib]HGS[αMeF]TSDVSK[αMeF]LDSR[Aib]AK([AEEA-γGlu-C18 diacid])DFVESIANT-NH2) | 0.0755 | 1.4 | 0.0531 |
| CC[C@H](C)[C@H](NC(=O)[C@H](CO)NC(=O)[C@H](CCC(=O)O)NC(=O)[C@@H](NC(=O)[C@H](Cc1ccccc1)NC(=O)[C@H](CC(=O)O)NC(=O)[C@H](CCCCNC(=O)CC[C@H](NC(=O)CCCCCCCCCCCCCCCCC(=O)O)C(=O)O)NC(=O)[C@H](C)NC(=O)C(C)(C)NC(=O)[C@H](CCCNC(=N)N)NC(=O)[C@H](CO)NC(=O)[C@H](CC(=O)O)NC(=O)[C@H](CC(C)C)NC(=O)[C@](C)(Cc1ccccc1)NC(=O)[C@H](CCCCN)NC(=O)[C@H](CO)NC(=O)[C@@H](NC(=O)[C@H](CC(=O)O)NC(=O)[C@H](CO)NC(=O)[C@@H](NC(=O)[C@](C)(Cc1ccccc1)NC(=O)[C@H](CO)NC(=O)CNC(=O)[C@H](Cc1c[nH]cn1)NC(=O)C(C)(C)NC(=O)[C@@H](N)Cc1c[nH]cn1)[C@@H](C)O)C(C)C)C(C)C)C(=O)N[C@@H](C)C(=O)N[C@@H](CC(N)=O)C(=O)N[C@H](C(N)=O)[C@@H](C)O [Peptide 254] (H-H[Aib]HGS[αMeF]TSDVSK[αMeF]LDSR[Aib]AK([γGlu-C18 diacid])DFVESIANT-NH2) | 0.102 | 2.4 | 0.125 |
